Patent US11566007B2, “Ras inhibitors” (Revolution Medicines, Inc., priority 2019, dated 2023)
pIC50: −log10 of the molar value.

What was measured:
Assay type in all cases: biochemical
NRAS Q61K = NRAS Q61K (Homo sapiens (Human), UniProt P01111+P62937, Q61K); assay: Ras-Raf (BRAF RBD) disruption / FRET / MOA assay, NRAS Q61K; details: NRAS Q61K; Ras-Raf disruption/FRET/MOA assay; read-out: IC50* NRAS Q61K FRET data
In short: (§1)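 Compounds were tested as a 10-point 3-fold dilution series from 30 μM final for their ability to drive ternary complex formation between nucleotide-loaded Ras and cyclophilin A, displacing the BRAF RBD. After 3 h at 25° C., anti-His Eu-W1024 (10 nM) and anti-GST allophycocyanin (50 nM) were added for 1.5 h. A TR-FRET ratio decrease versus DMSO gave IC50.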

KRAS G12S = KRAS G12S (Homo sapiens (Human), UniProt P01116+P62937, G12S); assay: Ras-Raf (BRAF RBD) disruption / FRET / MOA assay, KRAS G12S; details: Ras-Raf disruption/FRET/MOA assay; class symbols; read-out: KRAS G12S FRET data IC50
Sequence of KRAS G12S (P01116-2 other isoform, or with tags, fused parts or gaps G12S): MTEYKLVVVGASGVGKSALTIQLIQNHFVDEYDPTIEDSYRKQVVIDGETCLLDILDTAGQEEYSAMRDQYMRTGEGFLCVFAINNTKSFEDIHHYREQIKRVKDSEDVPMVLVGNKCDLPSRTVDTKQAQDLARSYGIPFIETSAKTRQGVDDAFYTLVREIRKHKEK
Sequence of KRAS G12S (P62937 whole entry): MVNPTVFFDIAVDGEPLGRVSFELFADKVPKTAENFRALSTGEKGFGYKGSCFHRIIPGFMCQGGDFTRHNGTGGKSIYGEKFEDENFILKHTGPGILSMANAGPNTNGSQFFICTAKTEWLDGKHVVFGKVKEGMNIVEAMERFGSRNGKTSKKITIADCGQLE
In short: (§2)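 TR-FRET read-out: a drop in ratio relative to DMSO wells marks disruption of the Ras:RAF complex, reported as IC50. Compounds (3-fold series, 10 points, top 30 μM final) incubated 3 h at 25° C before Eu-anti-His 10 nM and APC-anti-GST 50 nM, 1.5 h more.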

NRAS WT = NRAS WT (Homo sapiens (Human), UniProt P01111+P62937); assay: Ras-Raf (BRAF RBD) disruption / FRET / MOA assay, NRAS WT; details: read-out: IC50* NRAS WT FRET data
Sequence of NRAS WT (P01111 whole entry): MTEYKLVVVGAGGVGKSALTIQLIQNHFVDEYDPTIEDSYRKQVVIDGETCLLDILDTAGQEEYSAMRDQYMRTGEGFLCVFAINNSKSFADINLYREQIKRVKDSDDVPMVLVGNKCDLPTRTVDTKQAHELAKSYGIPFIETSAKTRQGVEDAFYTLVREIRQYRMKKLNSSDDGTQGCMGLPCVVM
Sequence of NRAS WT (P62937 whole entry): as the sequence (P62937 whole entry) above
In short: as §1

NRAS Q61R = NRAS Q61R (Homo sapiens (Human), UniProt P01111+P62937, Q61R); assay: Ras-Raf (BRAF RBD) disruption / FRET / MOA assay, NRAS Q61R; details: NRAS Q61R; Ras-Raf disruption/FRET/MOA assay; read-out: IC50* NRAS Q61R FRET data
Sequence of NRAS Q61R (P01111 whole entry Q61R): as the sequence (P01111 whole entry) above, with Q61R counted along it
Sequence of NRAS Q61R (P62937 whole entry): as the sequence (P62937 whole entry) above
In short: as §1

NRAS G12C = NRAS G12C (Homo sapiens (Human), UniProt P01111+P62937, G12C); assay: Ras-Raf (BRAF RBD) disruption / FRET / MOA assay, NRAS G12C; details: read-out: IC50* NRAS G12C FRET data
Sequence of NRAS G12C (P01111 whole entry G12C): as the sequence (P01111 whole entry) above, with G12C counted along it
Sequence of NRAS G12C (P62937 whole entry): as the sequence (P62937 whole entry) above
In short: as §2

KRAS G13D = KRAS G13D (Homo sapiens (Human), UniProt P01116+P62937, G13D); assay: Ras-Raf (BRAF RBD) disruption / FRET / MOA assay, KRAS G13D; details: read-out: IC50* KRAS G13D FRET data
Sequence of KRAS G13D (P01116-2 other isoform, or with tags, fused parts or gaps G13D): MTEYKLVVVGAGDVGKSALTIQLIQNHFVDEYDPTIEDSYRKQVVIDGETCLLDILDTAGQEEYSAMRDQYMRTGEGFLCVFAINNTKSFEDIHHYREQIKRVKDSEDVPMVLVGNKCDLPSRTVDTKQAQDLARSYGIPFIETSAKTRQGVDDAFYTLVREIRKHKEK
Sequence of KRAS G13D (P62937 whole entry): as the sequence (P62937 whole entry) above
In short: as §2

KRAS WT = KRAS WT (Homo sapiens (Human), UniProt P01116+P62937); assay: Ras-Raf (BRAF RBD) disruption / FRET / MOA assay, KRAS WT; details: read-out: IC50* KRAS WT FRET data
Sequence of KRAS WT (P01116-2 other isoform, or with tags, fused parts or gaps): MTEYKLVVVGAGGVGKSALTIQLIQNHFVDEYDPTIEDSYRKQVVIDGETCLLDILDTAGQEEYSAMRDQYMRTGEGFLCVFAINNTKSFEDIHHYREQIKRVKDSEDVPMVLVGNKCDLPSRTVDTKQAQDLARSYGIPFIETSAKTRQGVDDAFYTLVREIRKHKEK
Sequence of KRAS WT (P62937 whole entry): as the sequence (P62937 whole entry) above
In short: as §2

K-Ras G12C = K-Ras G12C (Homo sapiens (Human), UniProt P01116+P62937, G12C); assay: Ras-Raf (BRAF RBD) disruption / FRET / MOA assay, KRAS G12C; details: KRAS G12C; Ras-Raf disruption/FRET/MOA assay; read-out: IC50* KRAS G12C FRET data
Sequence of K-Ras G12C (P01116-2 other isoform, or with tags, fused parts or gaps G12C): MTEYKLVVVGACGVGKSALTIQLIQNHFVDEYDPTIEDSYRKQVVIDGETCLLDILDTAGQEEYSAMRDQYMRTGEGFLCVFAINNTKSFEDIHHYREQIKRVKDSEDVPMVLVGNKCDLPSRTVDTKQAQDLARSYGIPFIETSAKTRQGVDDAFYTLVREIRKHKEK
Sequence of K-Ras G12C (P62937 whole entry): as the sequence (P62937 whole entry) above
In short: as §2

KRAS G12V = KRAS G12V (Homo sapiens (Human), UniProt P01116+P62937, G12V); assay: Ras-Raf (BRAF RBD) disruption / FRET / MOA assay, KRAS G12V; details: read-out: IC50* KRAS G12V FRET data
Sequence of KRAS G12V (P01116-2 other isoform, or with tags, fused parts or gaps G12V): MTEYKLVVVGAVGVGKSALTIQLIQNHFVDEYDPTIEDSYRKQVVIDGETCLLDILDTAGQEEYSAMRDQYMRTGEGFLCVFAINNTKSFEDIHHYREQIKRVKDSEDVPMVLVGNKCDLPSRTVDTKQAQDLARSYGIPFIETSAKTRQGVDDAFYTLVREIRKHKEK
Sequence of KRAS G12V (P62937 whole entry): as the sequence (P62937 whole entry) above
In short: as §2

K-Ras G13C = K-Ras G13C (Homo sapiens (Human), UniProt P01116+P62937, G13C); assay: Ras-Raf (BRAF RBD) disruption / FRET / MOA assay, KRAS G13C; details: KRAS G13C; Ras-Raf disruption/FRET/MOA assay; read-out: IC50* KRAS G13C FRET data
Sequence of K-Ras G13C (P01116-2 other isoform, or with tags, fused parts or gaps G13C): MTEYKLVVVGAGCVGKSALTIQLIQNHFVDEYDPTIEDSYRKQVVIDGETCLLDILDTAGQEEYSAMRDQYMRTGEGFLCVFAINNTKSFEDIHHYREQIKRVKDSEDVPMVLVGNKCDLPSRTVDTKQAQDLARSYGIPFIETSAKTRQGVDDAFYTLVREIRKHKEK
Sequence of K-Ras G13C (P62937 whole entry): as the sequence (P62937 whole entry) above
In short: as §2

Sequence of NRAS Q61K (P01111 whole entry Q61K): as the sequence (P01111 whole entry) above, with Q61K counted along it
Sequence of NRAS Q61K (P62937 whole entry): as the sequence (P62937 whole entry) above

SMILES	pIC50 (NRAS Q61K)	pIC50 (KRAS G12S)	pIC50 (NRAS WT)	pIC50 (NRAS Q61R)	pIC50 (NRAS G12C)	pIC50 (KRAS G13D)	pIC50 (KRAS WT)	pIC50 (K-Ras G12C)	pIC50 (KRAS G12V)	pIC50 (K-Ras G13C)
CCn1c(-c2cccnc2[C@H](C)OC)c2c3cc(ccc31)-c1csc(n1)C[C@H](NC(=O)CN1CC[C@@]3(CCN(C(=O)C#CC(C)(C)N4CCC4)C3)C1)C(=O)N1CCC[C@H](N1)C(=O)OCC(C)(C)C2 (atropisomer, axis not shown) [Example A364]	5.00 to 6.00	5.00 to 6.00	5.00 to 6.00	5.00 to 6.00	6.00 to 7.00	5.00 to 6.00	5.00 to 6.00	6.00 to 7.00	5.00 to 6.00	5.00 to 6.00
CCn1c(-c2cccnc2[C@H](C)OC)c2c3cc(ccc31)-c1csc(n1)C[C@H](NC(=O)CCO[C@@H]1CCN(C(=O)C#CC(C)(C)N3CCC3)C1)C(=O)N1CCC[C@H](N1)C(=O)OCC(C)(C)C2 (atropisomer, axis not shown) [Example A366]	5.00 to 6.00	5.00 to 6.00	5.00 to 6.00	5.00 to 6.00	6.00 to 7.00	5.00 to 6.00	5.00 to 6.00	7.00 to 8.00	6.00 to 7.00	6.00 to 7.00
C=CC(=O)N1CC[C@H](C(=O)N(C)[C@H](C(=O)N[C@H]2Cc3cc(cc(C(F)F)c3)-c3ccc4c(c3)c(c(-c3cccnc3[C@H](C)OC)n4CC(F)(F)F)CC(C)(C)COC(=O)[C@@H]3CCCN(N3)C2=O)C(C)C)C1 (atropisomer, axis not shown) [Example A372]	5.00 to 6.00	5.00 to 6.00	5.00 to 6.00	5.00 to 6.00	6.00 to 7.00	5.00 to 6.00	5.00 to 6.00	6.00 to 7.00	5.00 to 6.00	6.00 to 7.00
CCn1c(-c2cccnc2[C@H](C)OC)c2c3cc(ccc31)N1CCO[C@@H](C[C@H](NC(=O)[C@@H](COC3CN(C(=O)C#CC(C)(C)N(C)C)C3)C(C)C)C(=O)N3CCC[C@H](N3)C(=O)OCC(C)(C)C2)C1 (atropisomer, axis not shown) [Example A377, (2R)-2-(((1-(4-(dimethylamino)-4-methylpent-2-ynoyl)azetidin-3-yl)oxy)methyl)-N-((2^2S,6^3S,4S)-1^1-ethyl-1^2-(2-((S)-1-methoxyethyl)pyridin-3-yl)-10,10-dimethyl-5,7-dioxo-6^1,6^2,6^3,6^4,6^5,6^6-hexahydro-1^1H-8-oxa-2(4,2)-morpholina-1(5,3)-indola-6(1,3)-pyridazinacycloundecaphane-4-yl)-3-methylbutanamide]	< 5.00	< 5.00	< 5.00	< 5.00	> 8.00	< 5.00	< 5.00	> 8.00	< 5.00	5.00 to 6.00
CO[C@@H](C)c1ncccc1-c1c2c3cc(ccc3n1CC(F)(F)F)-c1csc(n1)C[C@H](NC(=O)CCOC1CN(C(=O)C#CC(C)(C)N(C)C)C1)C(=O)N1CCC[C@H](N1)C(=O)OCC(C)(C)C2 (atropisomer, axis not shown) [Example A380]	5.00 to 6.00	5.00 to 6.00	5.00 to 6.00	5.00 to 6.00	> 8.00	5.00 to 6.00	5.00 to 6.00	> 8.00	6.00 to 7.00	6.00 to 7.00
C=CC(=O)N1C[C@H](C)N(C(=O)N(C)[C@H](C(=O)N[C@H]2Cc3nc(cs3)-c3ccc4c(c3)c(c(-c3cccnc3[C@H](C)OC)n4CC)CC(C)(C)COC(=O)[C@@H]3CCCN(N3)C2=O)C(C)C)[C@@H](C)C1 (atropisomer, axis not shown) [Example A386]	7.00 to 8.00	6.00 to 7.00	7.00 to 8.00	7.00 to 8.00	7.00 to 8.00	6.00 to 7.00	7.00 to 8.00	7.00 to 8.00	6.00 to 7.00	6.00 to 7.00
C=CC(=O)N1C[C@@H](C)N(C(=O)N(C)[C@H](C(=O)N[C@H]2Cc3nc(cs3)-c3ccc4c(c3)c(c(-c3cccnc3[C@H](C)OC)n4CC)CC(C)(C)COC(=O)[C@@H]3CCCN(N3)C2=O)C(C)C)[C@@H](C)C1 (atropisomer, axis not shown) [Example A387]	7.00 to 8.00	6.00 to 7.00	7.00 to 8.00	7.00 to 8.00	7.00 to 8.00	6.00 to 7.00	7.00 to 8.00	7.00 to 8.00	6.00 to 7.00	6.00 to 7.00
C=CC(=O)N1CC2(CCN(C(=O)N(C)[C@H](C(=O)N[C@H]3Cc4nc(cs4)-c4ccc5c(c4)c(c(-c4cccnc4[C@H](C)OC)n5CC)CC(C)(C)COC(=O)[C@@H]4CCCN(N4)C3=O)C(C)C)CC2)C1 (atropisomer, axis not shown) [Example A394]	7.00 to 8.00	6.00 to 7.00	6.00 to 7.00	6.00 to 7.00	7.00 to 8.00	6.00 to 7.00	6.00 to 7.00	7.00 to 8.00	6.00 to 7.00	7.00 to 8.00
C=CC(=O)N1CCN(C(=O)N(C)[C@H](C(=O)N[C@H]2Cc3nc(cs3)-c3ccc4c(c3)c(c(-c3cccnc3[C@H](C)OC)n4CC)CC(C)(C)COC(=O)[C@@H]3CCCN(N3)C2=O)C(C)C)CC12CC2 (atropisomer, axis not shown) [Example A417]	7.00 to 8.00	6.00 to 7.00	7.00 to 8.00	7.00 to 8.00	7.00 to 8.00	6.00 to 7.00	6.00 to 7.00	7.00 to 8.00	6.00 to 7.00	7.00 to 8.00
CCn1c(-c2cccnc2[C@H](C)OC)c2c3cc(ccc31)-c1csc(n1)C[C@H](NC(=O)CCOC1CN(C(=O)C#CC(C)(C)N(C)C)C1)C(=O)N1CCC[C@H](N1)C(=O)OCC(C)(C)C2 (atropisomer, axis not shown) [Example A427, 3-((1-(4-(dimethylamino)-4-methylpent-2-ynoyl)azetidin-3-yl)oxy)-N-((6^3S,4S,Z)-1^1-ethyl-1^2-(2-((S)-1-methoxyethyl)pyridin-3-yl)-10,10-dimethyl-5,7-dioxo-6^1,6^2,6^3,6^4,6^5,6^6-hexahydro-1^1H-8-oxa-2(4,2)-thiazola-1(5,3)-indola-6(1,3)-pyridazinacycloundecaphane-4-yl)propanamide]	5.00 to 6.00	5.00 to 6.00	5.00 to 6.00	< 5.00	> 8.00	5.00 to 6.00	5.00 to 6.00	> 8.00	5.00 to 6.00	5.00 to 6.00
C=CC(=O)N1CC[C@H](C(=O)N(C)[C@H](C(=O)N[C@H]2Cc3cccc(c3)-c3ccc4c(c3)c(c(-c3cc5c(nc3[C@H](C)OC)CCN(C)C5)n4CC)CC(C)(C)COC(=O)[C@@H]3CCCN(N3)C2=O)C(C)C)C1 (atropisomer, axis not shown) [Example A461]	5.00 to 6.00	5.00 to 6.00	5.00 to 6.00	5.00 to 6.00	6.00 to 7.00	< 5.00	5.00 to 6.00	6.00 to 7.00	5.00 to 6.00	5.00 to 6.00
